ChEMBL document CHEMBL1177819, “Monastrol analogs: a synthesis of pyrazolopyridine, benzopyranopyrazolopyridine, and oxygen-bridged azolopyrimidine derivatives and their biological screening” (Bioorg Med Chem Lett, 2010)
Calls of active or inactive are those of the source. The rule behind the calls is not given here.

What was measured:
[1] = molecular target: T1, Kinesin-like protein KIF11 (Homo sapiens) (UniProt P52732); test: Inhibition of kinasin spindle protein by ATPase assay
T1 sequence (whole entry): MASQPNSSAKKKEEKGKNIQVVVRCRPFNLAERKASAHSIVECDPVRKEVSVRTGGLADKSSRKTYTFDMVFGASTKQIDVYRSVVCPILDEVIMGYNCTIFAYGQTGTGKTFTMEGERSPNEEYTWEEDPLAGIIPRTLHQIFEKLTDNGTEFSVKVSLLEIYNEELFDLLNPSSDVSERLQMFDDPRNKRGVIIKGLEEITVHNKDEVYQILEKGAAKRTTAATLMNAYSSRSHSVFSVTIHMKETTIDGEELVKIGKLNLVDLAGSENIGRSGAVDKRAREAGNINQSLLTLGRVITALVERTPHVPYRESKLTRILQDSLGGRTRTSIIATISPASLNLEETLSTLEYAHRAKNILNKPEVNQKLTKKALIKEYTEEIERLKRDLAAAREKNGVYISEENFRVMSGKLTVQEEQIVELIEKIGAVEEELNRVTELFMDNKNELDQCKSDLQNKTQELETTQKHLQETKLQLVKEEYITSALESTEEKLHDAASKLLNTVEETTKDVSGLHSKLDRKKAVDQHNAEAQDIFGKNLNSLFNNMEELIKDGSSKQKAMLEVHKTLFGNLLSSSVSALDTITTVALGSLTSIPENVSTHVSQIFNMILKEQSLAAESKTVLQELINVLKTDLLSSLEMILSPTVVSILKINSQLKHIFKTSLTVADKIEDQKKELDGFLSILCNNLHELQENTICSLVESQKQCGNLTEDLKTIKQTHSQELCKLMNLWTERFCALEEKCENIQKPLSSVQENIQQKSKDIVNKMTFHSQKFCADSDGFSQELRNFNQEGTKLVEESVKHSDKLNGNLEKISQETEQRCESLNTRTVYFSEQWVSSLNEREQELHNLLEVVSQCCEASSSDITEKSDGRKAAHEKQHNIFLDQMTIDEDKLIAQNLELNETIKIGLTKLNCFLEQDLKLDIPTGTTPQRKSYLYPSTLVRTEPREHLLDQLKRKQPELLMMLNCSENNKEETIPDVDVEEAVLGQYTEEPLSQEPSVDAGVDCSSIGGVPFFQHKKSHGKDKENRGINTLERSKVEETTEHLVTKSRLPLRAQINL

[2] = molecular target: T1, Kinesin-like protein KIF11 (Homo sapiens); test: Inhibition of kinasin spindle protein in human HeLa cells assessed as inhibition of induction of mitotic arrest; format: cell-based
[3] = tested on: HeLa; test: Toxicity in human HeLa cells at 100 uM; format: cell-based
[4] = Toxicity in african green monkey BSC1 cells at 100 uM; format: cell-based; details: chlorocebus aethiops, bsc-1, 100 µM

| Compound | inhibition [1] | inhibition [2] | Activity [3] | Activity [4] |
| --- | --- | --- | --- | --- |
| CC1=C2C(=O)Oc3ccccc3C2c2c(n[nH]c2C)N1 (centres undefined) | inactive | inactive |  |  |
| C[C@@]12C[C@@H](c3ccccc3O1)n1nnnc1N2 | inactive | inactive |  |  |
| C[C@@]12C[C@@H](c3ccccc3O1)n1c(nc3ccccc31)N2 | inactive | inactive | Toxic | Toxic |

The next lines start with results.

| inhibition [1] | inhibition [2] | Compound | Activity [3] | Activity [4] |
| --- | --- | --- | --- | --- |
| inactive | inactive | C[C@@]12C[C@@H](c3ccccc3O1)N1CCSC1=N2 |  |  |
| inactive | inactive | Cc1cc2n(n1)[C@H]1C[C@@](C)(N2)Oc2ccccc21 |  |  |
| inactive | inactive | COC(=O)C1=C(C)Nc2n[nH]c(C)c2C1c1cccc(O)c1 (centres undefined) |  |  |
